Like-named read-outs stand apart in the source and are kept apart here.
Experiments:
T47D = experiment: MTT cytotoxicity assay, T47D; format: cell-based, human
MCF-7 [1] = experiment: MTT cytotoxicity assay, MCF-7; format: cell-based, human; conditions: read-out: Cytotoxicity (IC50) MCF-7, 48 h of treatment
MCF-7 [2] = experiment: Cell viability by cell adhesion assay; format: cell-based, human; conditions: MCF-7, 500 to 1.95 μM, 45 min
[3] = Stability in PBS and Tris-HCl buffer by UV-vis spectroscopy; format: physicochemical; conditions: PBS (0.1 M, pH 7.4) and Tris-HCl, 10% DMSO, room temperature, 5 min to 72 h

Compound: 1-Cyclopentyl-2,3-dihydro-1H-benzimidazole [compound 1]
- IC50 (T47D; read-out: Cytotoxicity (IC50) T47D, MTT assay, 48 h of treatment): 41 ± 2.12 µM
- IC50 (MCF-7 [1]): 37 ± 1.93 µM

Compound: CC/C(=C(\c1ccccc1)c1ccc(OCCN(C)C)cc1)c1ccccc1 [Tamoxifen]
- IC50 (T47D; Homo sapiens, T47D, 48 h, read-out: Cytotoxicity (IC50) T47D, MTT assay, 48 h of treatment): 13 ± 0.71 µM
- cell killing in adhesion assay (MCF-7 [2]): slightly less initial effects on MCF-7 cells

Compound: [Cl][Ag] [silver chloride]
- stability in buffer solution [3]: precipitates appeared immediately

Compound: O=[N+]([O-])[O-].[Ag+] [silver nitrate]
- stability in buffer solution [3]: precipitates appeared immediately
